The record followed here is EP0904079B1, “ANTIDIABETIC AGENTS” (MERCK & CO., INC., priority 1996, dated 1997).

The target of this assay is T1, Human PPARδ (Homo sapiens, UniProt Q03181).
T1 construct: The full length human cDNA for PPARγ2 and PPARδ were subcloned into the PGEX-2T and PGEX-KT, respectively, expression vector; made in house; host or cells: E. coli
T1 sequence (Q03181 1-441): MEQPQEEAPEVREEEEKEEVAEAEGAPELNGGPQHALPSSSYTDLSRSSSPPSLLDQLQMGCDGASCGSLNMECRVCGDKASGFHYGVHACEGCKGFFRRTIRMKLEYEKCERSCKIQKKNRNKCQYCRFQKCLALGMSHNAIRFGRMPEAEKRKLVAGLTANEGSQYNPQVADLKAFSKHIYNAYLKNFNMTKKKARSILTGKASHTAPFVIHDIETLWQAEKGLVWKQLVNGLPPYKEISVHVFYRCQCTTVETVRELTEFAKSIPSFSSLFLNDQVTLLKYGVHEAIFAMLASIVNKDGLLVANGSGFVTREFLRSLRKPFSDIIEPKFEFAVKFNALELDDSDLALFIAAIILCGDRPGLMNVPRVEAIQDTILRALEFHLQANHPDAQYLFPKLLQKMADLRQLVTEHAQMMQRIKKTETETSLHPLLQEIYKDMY
As to the kind of experiment: [3H2]Example 11 displacement assay (PPAR receptor binding assay). As for the experimental part:
Human PPARγ2 and PPARδ, independently, were prepared as gst-fusion proteins in E. coli. The full length human cDNA for PPARγ2 and PPARδ were subcloned into the PGEX-2T and PGEX-KT, respectively, expression vector (Pharmacia). E. coli containing the plasmid were grown, induced, and then harvested by centrifugation. The resuspended pellet was broken in a French press and debris was removed by centrifugation at 12,000Xg. Receptors were purified from the supernatant by affinity chromatography on glutathione sepharose. After application to the column, and 1 wash, receptor was eluted with glutathione. Glycerol was added to stabilize the receptor and aliquots were frozen at -80 °C for later use.
Assays were incubated for ∼ 16 h at 4 °C in a final volume of 300 µl. Unbound ligand was removed by addition of 200 µl dextran/gelatin-coated charcoal, on ice, for ∼10 minutes. After centrifugation at 3000 rpm for 10 min at 4 °C, 200 µl of the supernatant fraction was counted in a liquid scintillation counter.

Regarding `CCCc1c(OCCCSc2ccc(CC(=O)O)cc2Cl)ccc2oc3ccccc3c12` [Example 11, 3-Chloro-4-(1-propyl-dibenzofuranyl-2-oxy-propylthio)-phenylacetic acid], the Kd (in general, the free concentration of one partner at which half of the binding sites on the other are occupied at equilibrium, for simple one-to-one binding) was 1 nM. This lies in the single-digit nanomolar range.
